The source of these data is patent US12421216B2, “Voruciclib polymorphs and methods of making and using thereof” (MEI PHARMA, INC., priority 2019, dated 2025).

As usually defined, the solubility is the dissolved amount per volume that the medium holds.

Structures can show the parent of a compound that is named as a salt. Where two headings read alike, the source gives them in different places.

For data set [1] the following is noted: acid counterion; cited from earlier work.
Data set [2] in a line: Solubility of salts in water and in 0.2 M phosphate buffer pH 6 at 37° C. after 4 hours (HPLC-DAD). The format is physicochemical. The conditions noted are these: 37° C., 4 hours, listed as Voruciclib HCl salt. The method, then: Two sets of solubility experiments were performed. […] In the second set of solubility experiments about 5 mg of the salt was weighed in a standard 1.8 mL HPLC vial. Subsequently, aliquots of 200 μL of aqueous medium were added up to a maximum of 1 mL, while making observations regarding the dissolution behavior of the salts. The vials were left to equilibrate at 37° C. with continuous stirring (see Table 25 for details). After 4 hours the solids were separated from the liquid by centrifugation and the liquid phase was further filtrated through a […] PTFE filter to remove any particulate matter. The concentration of solute was determined by HPLC-DAD analysis. A calibration curve was made from two independent stock solutions of voruciclib prepared in acetonitrile/water. The pH was recorded at the end of the equilibration time.

Data set [3] is described as follows: Thermodynamic solubility of voruciclib HCl by the shake-flask method (HPLC). Type of data set: physicochemical. The conditions noted are these: RT; for Solubility classification: USP29.

Take `O=C(O)C[C@H](O)C(=O)O` [(−)-L-Malic]: in data set [1], the pka1 is on record as 3.5 and the pka2 is reported as 5.1.

On to `O=C(O)[C@H](O)[C@@H](O)[C@H](O)[C@H](O)CO` [D-Gluconic], for which, in data set [1], the pka1 was 3.8.

As to `O=C(O[C@@H](C(=O)O)[C@@H](OC(=O)c1ccccc1)C(=O)O)c1ccccc1` [Dibenzoyl-L-tartaric], the pka1 in data set [1] is on record as 1.9.

`O=S(=O)(O)CCS(=O)(=O)O` [Ethane-1,2-disulfonic]: in data set [1], the pka1 is given as −2.1 and the pka2 is on record as −1.5.

Take `CCS(=O)(=O)O` [Ethanesulfonic]: the pka1 in data set [1] is 2.1.

In the case of `O=C(O)CCCC(=O)O` [Glutaric], in data set [1], the pka1 was 4.3 and the pka2 is 5.3.

`O=S(=O)(O)c1cccc2c(S(=O)(=O)O)cccc12` [Naphthalene-1,5-disulfonic]: in data set [1], the pka1 is reported as −3.4 and the pka2 is listed as −2.6.

For `O=S(=O)(O)c1ccc2ccccc2c1` [Naphthalene-2-sulfonic], the pka1 in data set [1] is 0.2.

Consider `CN1CC[C@@H](c2c(O)cc(O)c3c(=O)cc(-c4ccc(C(F)(F)F)cc4Cl)oc23)[C@@H]1CO` [voruciclib HCl], for which, in data set [2] (0.2M phosphate buffer (pH 6)), the “Solubility pH 6” value is recorded as 0.01 mg/mL. In addition, the Solubility water entry in data set [2] (water) was “Gel”. Also, the solubility at 24 h amounted to 1600 µg/mL in data set [3] (1,2-dimethoxyethane, organic solvent or mixture, thermodynamic from solid, 1,2-Dimethoxyethane, 24 h, amorphous API, HPLC, read-out: Solubility); 400 µg/mL in data set [3] (1,4-dioxane, organic solvent or mixture, thermodynamic from solid, 1,4-Dioxane, 24 h, amorphous API, HPLC, read-out: Solubility); 34000 µg/mL in data set [3] (1-propanol, organic solvent or mixture, thermodynamic from solid, 1-Propanol, 24 h, amorphous API, HPLC, read-out: Solubility); 10000 µg/mL in data set [3] (2-butanol, organic solvent or mixture, thermodynamic from solid, 2-Butanol, 24 h, amorphous API, HPLC, read-out: Solubility); 1600 µg/mL in data set [3] (2-methyltetrahydrofuran, organic solvent or mixture, thermodynamic from solid, 2-Methyltetrahydrofuran, 24 h, amorphous API, HPLC, read-out: Solubility); 19000 µg/mL in data set [3] (2-propanol, organic solvent or mixture, thermodynamic from solid, 2-Propanol, 24 h, amorphous API, HPLC, read-out: Solubility). The solubility at 24 h is 3500 µg/mL in data set [3] (acetone, organic solvent or mixture, thermodynamic from solid, Acetone, 24 h, amorphous API, HPLC, read-out: Solubility); 900 µg/mL in data set [3] (acetonitrile, organic solvent or mixture, thermodynamic from solid, Acetonitrile, 24 h, amorphous API, HPLC, read-out: Solubility); below 100 µg/mL in data set [3] (anisole, organic solvent or mixture, thermodynamic from solid, Anisole, 24 h, amorphous API, HPLC, read-out: Solubility); 3100 µg/mL in data set [3] (chloroform, organic solvent or mixture, thermodynamic from solid, Chloroform, 24 h, amorphous API, HPLC, read-out: Solubility); below 100 µg/mL in data set [3] (cumene, organic solvent or mixture, thermodynamic from solid, Cumene, 24 h, amorphous API, HPLC, read-out: Solubility); below 100 µg/mL in data set [3] (cyclohexane, organic solvent or mixture, thermodynamic from solid, Cyclohexane, 24 h, amorphous API, HPLC, read-out: Solubility). The solubility at 24 h in data set [3] (dichloromethane, organic solvent or mixture, thermodynamic from solid, Dichloromethane, 24 h, amorphous API, HPLC, read-out: Solubility) is 500 µg/mL; in data set [3] (diethyl ether, organic solvent or mixture, thermodynamic from solid, Diethyl ether, 24 h, amorphous API, HPLC, read-out: Solubility), 200 µg/mL; in data set [3] (diisopropyl ether, organic solvent or mixture, thermodynamic from solid, Diisopropyl ether, 24 h, amorphous API, HPLC, read-out: Solubility), below 100 µg/mL; in data set [3] (ethanol, organic solvent or mixture, thermodynamic from solid, Ethanol, 24 h, amorphous API, HPLC, read-out: Solubility), 62000 µg/mL; in data set [3] (ethyl acetate, organic solvent or mixture, thermodynamic from solid, Ethyl acetate, 24 h, amorphous API, HPLC, read-out: Solubility) it was 800 µg/mL; in data set [3] (ethyl formate, organic solvent or mixture, thermodynamic from solid, Ethyl formate, 24 h, amorphous API, HPLC, read-out: Solubility), 1600 µg/mL. For the same compound, the solubility at 24 h in data set [3] (hexanes, organic solvent or mixture, thermodynamic from solid, Hexanes, 24 h, amorphous API, HPLC, read-out: Solubility) was below 100 µg/mL; in data set [3] (isopropyl acetate, organic solvent or mixture, thermodynamic from solid, Isopropyl acetate, 24 h, amorphous API, HPLC, read-out: Solubility) it was 500 µg/mL; in data set [3] (methanol, organic solvent or mixture, thermodynamic from solid, Methanol, 24 h, amorphous API, HPLC, read-out: Solubility) it was 230000 µg/mL; in data set [3] (methyl ethyl ketone, organic solvent or mixture, thermodynamic from solid, Methyl ethyl ketone, 24 h, amorphous API, HPLC, read-out: Solubility), 1100 µg/mL; in data set [3] (methyl isobutyl ketone, organic solvent or mixture, thermodynamic from solid, Methyl isobutyl ketone, 24 h, amorphous API, HPLC, read-out: Solubility) it was 700 µg/mL; in data set [3] (n-heptane, organic solvent or mixture, thermodynamic from solid, n-Heptane, 24 h, amorphous API, HPLC, read-out: Solubility), below 100 µg/mL. Moreover, the solubility at 24 h in data set [3] (n-hexane, organic solvent or mixture, thermodynamic from solid, n-Hexane, 24 h, amorphous API, HPLC, read-out: Solubility) was below 100 µg/mL; in data set [3] (p-xylene, organic solvent or mixture, thermodynamic from solid, p-Xylene, 24 h, amorphous API, HPLC, read-out: Solubility), below 100 µg/mL; in data set [3] (solvents other than DMA, DMF, DMSO and alcohols, organic solvent or mixture, thermodynamic from solid, solvents other than DMA, DMF, DMSO and alcohols, read-out: Solubility in all the other solvents) it was below 10000 µg/mL; in data set [3] (tert-butyl methyl ether, organic solvent or mixture, thermodynamic from solid, tert-Butyl methyl ether, 24 h, amorphous API, HPLC, read-out: Solubility), 100 µg/mL; in data set [3] (tetrahydrofuran, organic solvent or mixture, thermodynamic from solid, Tetrahydrofuran, 24 h, amorphous API, HPLC, read-out: Solubility), 9600 µg/mL; in data set [3] (toluene, organic solvent or mixture, thermodynamic from solid, Toluene, 24 h, amorphous API, HPLC, read-out: Solubility), 100 µg/mL. Besides, the “solubility” value in data set [3] (1-Propanol, 24 h, amorphous API, HPLC) is 34500 µg/mL; in data set [3] (2-Butanol, 24 h, amorphous API, HPLC) it was 10200 µg/mL; in data set [3] (2-Propanol, 24 h, amorphous API, HPLC) it was 18800 µg/mL; in data set [3] (Dimethyl sulfoxide, amorphous API, no suspension obtained, concentration of the solution after first aliquot), above 400000 µg/mL; in data set [3] (Ethanol, 24 h, amorphous API, HPLC) it was 62000 µg/mL; in data set [3] (Methanol, 24 h, amorphous API, HPLC) it was 229500 µg/mL. Moreover, the “solubility” value is above 400000 µg/mL in data set [3] (N,N-Dimethylacetamide, amorphous API, no suspension obtained, concentration of the solution after first aliquot); above 400000 µg/mL in data set [3] (N,N-Dimethylformamide, amorphous API, no suspension obtained, concentration of the solution after first aliquot); above 400000 µg/mL in data set [3] (N,N-dimethylacetamide, organic solvent or mixture, thermodynamic from solid, N,N-Dimethylacetamide, amorphous API, no suspension obtained, concentration of the solution after first aliquot, read-out: Solubility); above 400000 µg/mL in data set [3] (N,N-dimethylformamide, organic solvent or mixture, thermodynamic from solid, N,N-Dimethylformamide, amorphous API, no suspension obtained, concentration of the solution after first aliquot, read-out: Solubility); above 400000 µg/mL in data set [3] (dimethyl sulfoxide, organic solvent or mixture, thermodynamic from solid, Dimethyl sulfoxide, amorphous API, no suspension obtained, concentration of the solution after first aliquot, read-out: Solubility). The Solubility classification result in data set [3] (2-Propanol, 2-Butanol) is listed as “Sparingly soluble”; in data set [3] (Acetonitrile, Ethyl acetate, Methyl isobutyl ketone, Dichloromethane, Isopropyl acetate, 1,4-Dioxane, Diethyl ether, tert-Butyl methyl ether, Toluene), “Very slightly soluble”; in data set [3] (Anisole, p-Xylene, Diisopropyl ether, Cumene, Cyclohexane, n-Hexane, n-Heptane, Hexanes) it was “Practically insoluble”; in data set [3] (Ethanol, 1-Propanol) it was “Soluble”; in data set [3] (N,N-Dimethylacetamide, Dimethyl sulfoxide, N,N-Dimethylformamide, Methanol), “Freely soluble”; in data set [3] (Tetrahydrofuran, Acetone, Chloroform, 1,2-Dimethoxyethane, 2-Methyltetrahydrofuran, Ethyl formate, Methyl ethyl ketone) it was “Slightly soluble”.
